The values below come from ChEMBL document CHEMBL4334495, “Design and Biological Evaluation of m-Xylene Thioether-Stapled Short Helical Peptides Targeting the HIV-1 gp41 Hexameric Coiled-Coil Fusion Complex” (J Med Chem, 2019).

Activity calls are given as the source filed them. The calls are words filed in the database; no cut-off is given here. Starred links: 1 amine or outer side, 2 acyl side, 3 side chain; linkers in the order of their positions; H or OH if unused. Positions of bridges follow the written chain, without caps; N, C: chain ends. Non-standard residues stand in square brackets, D forms with d. Residues, ends and D or L forms follow the SMILES beside them. ξ: configuration not given here. mXylylene = c1cc(C[*:1])cc(C[*:2])c1; ξhCys = NC(CCS)C(=O)O

For test [1], the target named is Envelope glycoprotein gp160 (Human immunodeficiency virus 1) (UniProt Q6QLK5). The experiment in a line: Binding affinity to HIV1 GP41 using GP41 NHR derived N36 peptide assessed as melting temperature at 10 uM incubated for 30 mins by CD spectroscopy.
The target is the same in test [2]. The experiment in a line: Binding affinity to HIV1 GP41 using GP41 NHR derived N36 peptide assessed as formation of oligomeric complex at 100 uM incubated for 30 mins by Coomassie blue R250 staining based Native-PAGE analysis.
Test [3] deals with Human immunodeficiency virus 1. The experiment in a line: Synergistic antiviral activity against X4 tropic HIV-1 subtype-B 3B infected in human MT2 cells or CEMx174 5.25 M7 cells assessed as reduction in p24 Gag protein production by measuring combination index at 24:1 compound to HP23 ratio measured at 4 days post-infection by ELISA. It counts as functional, HIV-1 group M.
Test [4] concerns Human immunodeficiency virus 1. The experiment in a line: Synergistic antiviral activity against R5 tropic HIV-1 subtype-B Bal infected in human MT2 cells or CEMx174 5.25 M7 cells assessed as reduction in p24 Gag protein production by measuring combination index at 6:1 ratio of hCS6ERE to compound measured at 4 days post-infection by ELISA. It counts as functional, HIV-1 group M.

In test [5] the test system is Human immunodeficiency virus 1. The experiment in a line: Synergistic antiviral activity against HIV1 NL4-3 infected in human MT2 cells or CEMx174 5.25 M7 cells assessed as reduction in p24 Gag protein production by measuring combination index at 20:1 compound to HP23 ratio measured at 4 days post-infection by ELISA. The format is functional.
Test [6] deals with Human immunodeficiency virus 1. The experiment in a line: Synergistic antiviral activity against T20 resistant HIV1 NL4-3 harboring with V38E/N42S mutant infected in human MT2 cells or CEMx174 5.25 M7 cells assessed as reduction in p24 Gag protein production by measuring combination index at 7000:1 compound to HP23 ratio measured at 4 days post-infection by ELISA. The format is functional.

The subject of test [7] is Human immunodeficiency virus 1. The experiment in a line: Antiviral activity against T20 resistant HIV1 NL4-3 harboring with V38E/N42S mutant infected in human MT2 cells or CEMx174 5.25 M7 cells assessed as reduction in p24 Gag protein production at 3500:1 compound to HP23 ratio measured at 4 days post-infection by ELISA. The format is functional, organism-based.
For test [8], the system named is Human immunodeficiency virus 1. The experiment in a line: Ratio of EC50 for antiviral activity against T20 resistant HIV1 NL4-3 harboring with V38E/N42S mutant infected in human MT2 cells or CEMx174 5.25 M7 cells in absence of HP23 to EC50 for antiviral activity against T20 resistant HIV1 NL4-3 harboring with V38E/N42S mutant infected in human MT2 cells or CEMx174 5.25 M7 cells at 3500:1 compound to HP23 ratio. The format is functional.

Test [9] concerns Human immunodeficiency virus 1. The experiment in a line: Ratio of EC50 for antiviral activity against T20 resistant HIV1 NL4-3 harboring with V38E/N42S mutant infected in human MT2 cells or CEMx174 5.25 M7 cells in absence of HP23 to EC50 for antiviral activity against T20 resistant HIV1 NL4-3 harboring with V38E/N42S mutant infected in human MT2 cells or CEMx174 5.25 M7 cells at 7000:1 compound to HP23 ratio. It counts as functional.

Test [10] has as its system Human immunodeficiency virus 1. The experiment in a line: Synergistic antiviral activity against T20 resistant HIV1 NL4-3 harboring with V38E/N42T mutant infected in human MT2 cells or CEMx174 5.25 M7 cells assessed as reduction in p24 Gag protein production by measuring combination index at 600:1 compound to HP23 ratio measured at 4 days post-infection by ELISA. The format is functional.

Test [11] has as its system Human immunodeficiency virus 1. The experiment in a line: Synergistic antiviral activity against T2635 resistant HIV1 LAI harboring Q66R mutant infected in human MT2 cells or CEMx174 5.25 M7 cells assessed as reduction in p24 Gag protein production by measuring combination index at 12.5:1 compound ratio measured at 4 days post infection by ELISA. It counts as functional, M:B_Lai.

For test [12], the system named is Human immunodeficiency virus 1. The experiment in a line: Antiviral activity against T2635 resistant HIV1 LAI harboring Q66R mutant infected in human MT2 cells or CEMx174 5.25 M7 cells assessed as reduction in p24 Gag protein production at 25:1 ratio of compound to HP23 measured at 4 days post infection by ELISA. It counts as functional, organism-based, M:B_Lai.

The test system of test [13] is Human immunodeficiency virus 1. The experiment in a line: Antiviral activity against X4 tropic HIV-1 subtype-B 3B infected in human MT2 cells or CEMx174 5.25 M7 cells assessed as reduction in p24 Gag protein production at 12:1 ratio of hCS6ERE to compound measured at 4 days post-infection by ELISA. The format is functional, cell-based, HIV-1 group M. To be noted: Human immunodeficiency virus 1, 3B, 96 h.

For test [14], the system named is Human immunodeficiency virus 1. The experiment in a line: Ratio of EC50 for antiviral activity against X4 tropic HIV-1 subtype-B 3B infected in human MT2 cells or CEMx174 5.25 M7 cells in absence of hCS6ERE to EC50 for antiviral activity against X4 tropic HIV-1 subtype-B 3B infected in human MT2 cells or CEMx174 5.25 M7 cells at 6:1 ratio of hCS6ERE to compound. The format is functional, HIV-1 group M.

Test [15] has as its system Human immunodeficiency virus 1. The experiment in a line: Ratio of EC50 for antiviral activity against X4 tropic HIV-1 subtype-B 3B infected in human MT2 cells or CEMx174 5.25 M7 cells in absence of hCS6ERE to EC50 for antiviral activity against X4 tropic HIV-1 subtype-B 3B infected in human MT2 cells or CEMx174 5.25 M7 cells at 12:1 ratio of hCS6ERE to compound. The format is functional, HIV-1 group M.

Test [16] deals with Human immunodeficiency virus 1. The experiment in a line: Antiviral activity against HIV1 NL4-3 infected in human MT2 cells or CEMx174 5.25 M7 cells assessed as reduction in p24 Gag protein production at 10:1 hCS6ERE to compound ratio measured at 4 days post-infection by ELISA. The format is functional, organism-based. To be noted: Human immunodeficiency virus 1, NL4-3, 96 h.

Test [17] concerns Human immunodeficiency virus 1. The experiment in a line: Antiviral activity against HIV1 NL4-3 infected in human MT2 cells or CEMx174 5.25 M7 cells assessed as reduction in p24 Gag protein production at 20:1 hCS6ERE to compound ratio measured at 4 days post-infection by ELISA. It counts as functional, organism-based. To be noted: Human immunodeficiency virus 1, NL4-3, 96 h.
For test [18], the system named is Human immunodeficiency virus 1. The experiment in a line: Ratio of EC50 for antiviral activity against HIV1 NL4-3 infected in human MT2 cells or CEMx174 5.25 M7 cells in absence of hCS6ERE to EC50 for antiviral activity against HIV1 NL4-3 infected in human MT2 cells or CEMx174 5.25 M7 cells at 20:1 hCS6ERE to compound ratio. The format is functional.
Test [19] concerns Human immunodeficiency virus 1. The experiment in a line: Ratio of EC50 for antiviral activity against T20 resistant HIV1 NL4-3 harboring with V38E/N42S mutant infected in human MT2 cells or CEMx174 5.25 M7 cells in absence of hCS6ERE to EC50 for antiviral activity against T20 resistant HIV1 NL4-3 harboring with V38E/N42S mutant infected in human MT2 cells or CEMx174 5.25 M7 cells at 3500:1 hCS6ERE to compound ratio. The format is functional.

Test [20] has as its system Human immunodeficiency virus 1. The experiment in a line: Ratio of EC50 for antiviral activity against T20 resistant HIV1 NL4-3 harboring with V38E/N42T mutant infected in human MT2 cells or CEMx174 5.25 M7 cells in absence of hCS6ERE to EC50 for Antiviral activity against T20 resistant HIV1 NL4-3 harboring with V38E/N42T mutant infected in human MT2 cells or CEMx174 5.25 M7 cells at 300:1 hCS6ERE to compound ratio. It counts as functional.

Chain of Envelope glycoprotein gp160 (Human immunodeficiency virus 1) (Q6QLK5 1-814): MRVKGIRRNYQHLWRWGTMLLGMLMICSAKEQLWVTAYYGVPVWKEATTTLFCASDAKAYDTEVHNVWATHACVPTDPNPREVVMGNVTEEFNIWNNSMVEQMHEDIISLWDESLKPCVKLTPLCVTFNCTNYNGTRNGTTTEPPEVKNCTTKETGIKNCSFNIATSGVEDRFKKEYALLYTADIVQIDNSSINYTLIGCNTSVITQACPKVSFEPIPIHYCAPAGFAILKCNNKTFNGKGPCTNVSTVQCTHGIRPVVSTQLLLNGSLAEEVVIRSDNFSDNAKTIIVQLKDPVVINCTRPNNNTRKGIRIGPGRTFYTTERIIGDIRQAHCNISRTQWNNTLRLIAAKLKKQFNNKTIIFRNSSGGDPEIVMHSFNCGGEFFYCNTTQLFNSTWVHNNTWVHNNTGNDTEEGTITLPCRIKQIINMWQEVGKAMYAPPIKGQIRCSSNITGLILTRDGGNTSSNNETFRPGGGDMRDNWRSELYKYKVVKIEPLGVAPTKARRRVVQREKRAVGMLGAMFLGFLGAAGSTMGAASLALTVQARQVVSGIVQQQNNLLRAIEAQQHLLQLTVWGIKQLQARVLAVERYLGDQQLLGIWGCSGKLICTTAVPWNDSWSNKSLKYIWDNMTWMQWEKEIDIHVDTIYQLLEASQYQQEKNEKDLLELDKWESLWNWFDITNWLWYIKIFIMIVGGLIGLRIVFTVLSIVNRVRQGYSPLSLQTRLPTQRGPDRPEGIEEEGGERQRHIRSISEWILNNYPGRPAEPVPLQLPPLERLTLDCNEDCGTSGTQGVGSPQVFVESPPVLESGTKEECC

`CC[C@H](C)[C@H](NC(C)=O)C(=O)N[C@@H](CCC(=O)O)C(=O)N[C@@H](CCC(=O)O)C(=O)N[C@@H](CC(C)C)C(=O)N[C@H](C(=O)NC1CCSCc2cccc(c2)CSCCC(C(=O)N[C@@H](CCC(N)=O)C(=O)N[C@@H](CCC(N)=O)C(=O)N[C@@H](CCCNC(=N)N)C(=O)N[C@@H](CCCCN)C(=O)N[C@@H](CC(N)=O)C(=O)N[C@@H](CCC(=O)O)C(=O)N[C@@H](CCC(=O)O)C(=O)N[C@@H](C)C(=O)N[C@@H](CC(C)C)C(=O)N[C@@H](CCCNC(=N)N)C(=O)N[C@@H](CCC(=O)O)C(=O)N[C@@H](CC(C)C)C(N)=O)NC(=O)[C@H](CCC(N)=O)NC(=O)[C@H](C)NC(=O)[C@H](C)NC1=O)[C@@H](C)CC` (stereo not given in full) (Ac-IEELI[ξhCys]AAQ[ξhCys]QQRKNEEALREL-NH2; linker 6-10 via mXylylene): the Tm in [1] amounted to 57.6 °C. The result in [2] was Active. Further, the CI in test [3] was 0.9; in test [4], 0.8; in test [5], 0.8; in test [6], 0.6; in test [10], 0.7; in [11] it was 0.7. In addition, the 50% effective concentration (EC50) was 2040 nM in test [7] and 39.5 nM in test [12]. Moreover, the figures for the “Ratio EC50” value in [8] and in [9] were 3.4 and 2.7, respectively.

Take H-EMTWEEWEKKIEEYTKKIEEILK-OH: the results for the EC50 in test [13], in test [16] and in test [17] were 0.9 nM, 0.9 nM and 0.7 nM, respectively. Besides, the “Ratio EC50” value was found to be 1.9 in test [14]; 2.8 in test [15]; 4.9 in [18]; 2.3 in test [19]; 2.9 in test [20].
